# From patent US20100197625A1, “SYNTHETIC LIPOPHILIC INOSITOL GLYCANS FOR TREATMENT OF CANCER AND GLUCOSE-METABOLISM DISORDERS” (priority 2006, published 2010)
# How the values were obtained:
# human hepatoma (HuH7) = assay: Cell proliferation / cell death assay, HuH7; assay type: cell-based; settings: HuH7, 10-100 μM
# Method: (§1) Human pancreatic cancer cell lines (Panc-1, MiaPaca2, BXPC3, Aspc 1), human hepatoma cell line (HuH7), human gastric cancer cell lines (AGS, MKN45), human colon cancer cell line (CoCM-1), human mammary cancer cell line (MCF-7), human neuroblastoma (SH-SY5Y), human prostate cancer cells (PC3), and murine Ehrlich ascites cancer cells and mouse 3T3-L1 fibroblasts were obtained from American Type Culture Collection (Rockville, Md., USA). The cancer cells were cultured in RPMI 1640 containing 10% fetal calf serum. Cultures were maintained at 37° C. in a humidified atmosphere of 5% CO2.
# Cell proliferation assays were performed with the CellTiter 96 AQueous One Solution Cell Proliferation Assay kit according to the manufacturer's instructions (Promega, Madison, Wis., USA). Briefly, 5×10^3 cells/well in medium were placed onto 96-well plates. IGs were added to cellular cultures at final concentrations of 0, 1, 10, and 100 μM. […] of CellTiter 96 AQueous One Solution Reagent, which contains a tetrazolium compound, 3-(4,5-dimethylthiazol-2-yl)-5-(3-carboxymethoxyphenyl)-2-(4-sulfophenyl)-2H-tetrazolium, an inner salt; MTS was added to the culture medium. After incubating the plate for 1 h in a CO2 incubator, absorbance at 490 nm was recorded with a 96-well plate reader.
# AGS = assay: Cell proliferation / cell death assay, AGS; assay type: cell-based, human; settings: 10-100 μM
# Method: as §1
# (§2) Cell proliferation assays were performed with the CellTiter 96 AQueous One Solution Cell Proliferation Assay kit according to the manufacturer's instructions (Promega, Madison, Wis., USA). Briefly, 5×10^3 cells/well in medium were placed onto 96-well plates. IGs were added to cellular cultures at final concentrations of 0, 1, 10, and 100 μM. Cultures were incubated for 3 days or 7 days and then added to 20 μL/well of CellTiter 96 AQueous One Solution Reagent, which contains a tetrazolium compound, 3-(4,5-dimethylthiazol-2-yl)-5-(3-carboxymethoxyphenyl)-2-(4-sulfophenyl)-2H-tetrazolium, an inner salt; MTS was added to the culture medium. After incubating the plate for 1 h in a CO2 incubator, absorbance at 490 nm was recorded with a 96-well plate reader.
# [1] = system: human normal cultured cells; assay: Proliferation of human normal cultured cells; assay type: cell-based; settings: 1-100 μM, data not shown
# Method: Human primary culture cells, dermal fibroblasts, epidermal keratinocytes and umbilical vein endothelial cells were purchased from Cell Applications (San Diego, Calif., USA) and cultured according to the manufacturer's instructions.
# as §2
# [2] = system: Ehrlich ascites cancer cells; assay: Animal survival analysis, ddY mice bearing Ehrlich ascites cancer cells; assay type: in vivo; settings: daily intraperitoneal for 7 days
# Method: Male ddy mice weighing 20-30 g obtained from and maintained on a standard diet and water ad libitum. Ehrlich ascites cancer cells (5×10^6 cells) were injected intraperitoneal to the mice. After 7 days later, the mice were subjected to daily intraperitoneal injection of IG1 or IG1 plus alkyl-acyl-phosphatidic acids (AAPAs) for additional 7 days. The endpoint of experiment was determined by spontaneous death of animals.
# 3T3-L1 adipocytes = assay: Glycogen synthesis in 3T3-L1 adipocytes; assay type: cell-based, mouse; settings: 10-1000 μM
# Method: 3T3-L1 fibroblasts were maintained in Dulbecco's modified Eagle's medium (DMEM) with 25 mM glucose plus 10% fetal bovine serum (FBS). Following 2 days at confluence, differentiation was initiated by the addition of DMEM containing 10% FBS, 167 nM insulin, […] dexamethasone, and 0.5 mM isobutylmethylxanthine. Three days later, the medium was replaced with DMEM plus 10% FBS and 167 nM insulin. After 2 more days, the medium was switched to DMEM plus 10% fetal bovine serum. Adipocytes were used 6-14 days after completion of the differentiation protocol, when >90% of the cells expressed the adipocyte phenotype. Prior to experiments, cells were washed two times with DMEM medium containing 5 mM glucose, 0.2% bovine serum albumin, 25 mM Hepes (pH 7.4), 100 units/ml penicillin, 100 units/ml streptomycin and 0.29 mg/ml glutamine, and were incubated in the same medium for 2 h. Glycogen and lipid synthesis were measured in 24-well dishes. […] The lipids were then extracted overnight with 5 ml of Betafluor (National Diagnostics), and glucose incorporation into lipid was measured by scintillation counting. 400 μl of the cell suspension was added to 600 μl of 50% KOH, and glycogen was precipitated and radioactivity was counted by a liquid scintillation counter
# [3] = system: C57B/6 mice on normal diets; assay: Intravenous administration of IG1, mice on normal diets; assay type: in vivo
# Method: Male C57BL/6 mice were housed individually and given free access to a standard diet (65% carbohydrate, 4% fat, and 24% protein) or a high-fat diet (Quick Fat; 60.2% carbohydrate, 15.3% fat, and 24.5% protein; Clea Japan, Tokyo, Japan), starting at 5 weeks of age, for 5 weeks. Db/db mice also were housed individually and given free access to a standard diet. C57BL/6 mice at 5 weeks of age, were received a single dose of 75 μg/g body weight streptozotoxin (STZ). 7 days after injections, the mice, whose fasting plasma glucose concentrations were over 400 mg/dl, were used as STZ-diabetic mice. […]
# Frozen livers were homogenized, and triglycerides were extracted with CHCl3:CH3OH (2:1, vol:vol), dried and resuspended in 2-propanol (17). Triglyceride contents were measured using Lipidos liquid (TOYOBO, Osaka, Japan). […] Glycogen content was determined by the phenol-sulfuric acid spectrophotometric method at 490 nm (18) and expressed as micrograms of glycogen per milligram of liver.
# Blood glucose was assayed with Glucose Ace (Sanwa Kagaku Kenkyusho, Nagoya, Japan). Serum insulin and leptin were determined with ELISA kits (Morinaga Institute of Biological Science, Yokohama, Japan). Serum adiponectin and tumor necrosis factor-α (TNF-α) concentrations were measured with an ELISA kit (Ohtsuka Pharmaceutical, Tokyo, Japan) and a TNF-α assay kit (Amersham Biosciences, Uppsala, Sweden), respectively. […]
smiles,measurement,setting,value
"CCCCCCCCCCCCCCCC(=O)O[C@@H]1C(O)C(O)[C@H](O)C(O[C@H]2OC(CO)[C@@H](O)[C@H](O)C2N)C1O (stereo in doubt) [IG1, 2-Amino-2-deoxy-α-D-glucopyranosyl-(1→6)-2-palmitoyl-D-myo-inositol]",rapid cancer cell death,human hepatoma (HuH7),rapid cancer cell death was demonstrated
same,rapid cancer cell death,AGS,rapid cancer cell death was demonstrated
same,proliferation of human normal cultured cells,[1],did not affect the proliferation
same,survival times,[2],did not affect the survival times
same,glycogen synthesis,3T3-L1 adipocytes,stimulates
same,plasma glucose concentrations,"[3]; intravenous, normal mice",reduced plasma glucose concentrations
same,hepatic and muscular glycogen synthesis,"[3]; mice on normal diets, data not shown",increases hepatic and muscular glycogen synthesis
